Experimental data: the NIST ThermoML archive (doi:10.1021/je500420g)
± gives the expanded uncertainty stated by the source.

Assay: xn = mol fraction of the nth substance listed
Conditions: 100 kPa, Liquid, Vibrating tube method

| Structure (SMILES) | mass density (293.15 K, x1 = 0.01) [kg/m3] | mass density (293.15 K, x1 = 0.03) [kg/m3] | mass density (293.15 K, x1 = 0.05) [kg/m3] | mass density (303.15 K, x1 = 0.01) [kg/m3] | mass density (303.15 K, x1 = 0.03) [kg/m3] | mass density (303.15 K, x1 = 0.05) [kg/m3] | mass density (313.15 K, x1 = 0.01) [kg/m3] | mass density (313.15 K, x1 = 0.03) [kg/m3] | mass density (313.15 K, x1 = 0.05) [kg/m3] | mass density (323.15 K, x1 = 0.01) [kg/m3] | mass density (323.15 K, x1 = 0.03) [kg/m3] | mass density (323.15 K, x1 = 0.05) [kg/m3] | mass density (333.15 K, x1 = 0.01) [kg/m3] | mass density (333.15 K, x1 = 0.03) [kg/m3] | mass density (333.15 K, x1 = 0.05) [kg/m3] |
| --- | --- | --- | --- | --- | --- | --- | --- | --- | --- | --- | --- | --- | --- | --- | --- |
| [Br-].[Cs+] [cesium bromide] + O | 1090.5 ± 0.2 | 1267.9 ± 0.4 | 1438.8 ± 0.5 | 1086.7 ± 0.2 | 1262.8 ± 0.4 | 1432.6 ± 0.5 | 1082.3 ± 0.3 | 1257.3 ± 0.4 | 1426 ± 0.5 | 1077.6 ± 0.3 | 1251.5 ± 0.4 | 1419.3 ± 0.5 | 1072.4 ± 0.3 | 1245.5 ± 0.4 | 1412.4 ± 0.5 |
| [Cl-].[Cs+] [cesium chloride] + O | 1069.9 ± 0.2 | 1208.3 ± 0.3 | 1342.6 ± 0.4 | 1066.3 ± 0.2 | 1203.6 ± 0.3 | 1337 ± 0.4 | 1062.1 ± 0.2 | 1198.6 ± 0.3 | 1331.2 ± 0.4 | 1057.5 ± 0.2 | 1193.2 ± 0.3 | 1325.2 ± 0.4 | 1052.4 ± 0.2 | 1187.7 ± 0.3 | 1319.1 ± 0.4 |
| [Cs+].[F-] [cesium fluoride (CsF)] + O | 1070.9 ± 0.2 | 1210.1 ± 0.3 | 1349.9 ± 0.4 | 1068 ± 0.2 | 1206.2 ± 0.3 | 1345.4 ± 0.4 | 1064.3 ± 0.2 | 1201.7 ± 0.3 | 1340.4 ± 0.4 | 1059.9 ± 0.3 | 1196.6 ± 0.3 | 1334.9 ± 0.4 | 1053 ± 0.3 | 1190.9 ± 0.3 | 1329.1 ± 0.4 |
| [Cs+].[I-] [cesium iodide] + O | 1109.5 ± 0.3 | 1320.7 ± 0.4 | 1519.4 ± 0.6 | 1105.6 ± 0.3 | 1314.9 ± 0.4 | 1512.1 ± 0.6 | 1101 ± 0.3 | 1308.9 ± 0.4 | 1504.5 ± 0.6 | 1096 ± 0.3 | 1302.5 ± 0.4 | 1496.9 ± 0.6 | 1090.6 ± 0.3 | 1295.9 ± 0.4 | 1489.1 ± 0.6 |
| [Br-].[Li+] [lithium bromide] + O | 1033.5 ± 0.2 | 1101.8 ± 0.3 | 1171.5 ± 0.3 | 1030.2 ± 0.2 | 1098 ± 0.3 | 1168 ± 0.3 | 1026.3 ± 0.2 | 1093.9 ± 0.3 | 1163.9 ± 0.3 | 1022 ± 0.2 | 1089.4 ± 0.3 | 1159.3 ± 0.3 | 1017.2 ± 0.2 | 1084.6 ± 0.3 | 1154.3 ± 0.3 |
| [Cl-].[Li+] [lithium chloride] + O | 1012.3 ± 0.2 | 1038.5 ± 0.2 | 1064.1 ± 0.2 | 1009.7 ± 0.2 | 1035.7 ± 0.2 | 1061.2 ± 0.2 | 1006.2 ± 0.2 | 1032.3 ± 0.2 | 1057.9 ± 0.2 | 1002.1 ± 0.2 | 1028.3 ± 0.2 | 1054 ± 0.2 | 997.4 ± 0.2 | 1023.8 ± 0.2 | 1049.8 ± 0.2 |
